# Earlier results as cited in US12048763B2, “Compositions and methods for treating sialorrhea” (priority 2021, dated 2024).
# Conditions: by 6 months
structure (smiles),measurement,value
C[N+]1(C)CCC(OC(=O)C(O)(c2ccccc2)C2CCCC2)C1 (stereo not shown) [glycopyrrolate],participants no longer taking the drug due to adverse effects,45%
